According to patent publication EP0139358B1, “N6-substituted diarylalkyl adenosines, processes for their production and pharmaceutical compositions comprising the same” (priority 1983, dated 1985):
Like-named read-outs stand apart in the source and are kept apart here.

Legend:
Swiss-Webster male mice [1] = test: Mouse Activity and Screen Test (MAST): inhibition of spontaneous locomotion (LI); format: in vivo; conditions: for Inhibition of mouse locomotor activity: one hour prior to testing, vs vehicle; for minimal effective dose: Mus musculus, ip, read-out: MAST LI LAD
Procedure: (§1) Treatments are administered intraperitoneally one hour prior to testing. […] Compounds are dissolved or suspended in 0.2% Methocel. Control animals are injected with Methocel.
Immediately following the screen test, the final phase of testing is initiated by placing each group of three mice in one actophotometer (Life Sciences, 22, 1067-1076, 1978). The actophotometer consists of a cylindrical chamber whose center is occupied by another cylinder which contains the illumination for six photocells located on the perimeter of the chamber. Six light-beam interruptions equal one count. Locomotor activity is recorded by computer at ten minute intervals for 60 minutes. […]

Swiss-Webster male mice [2] = test: Mouse Activity and Screen Test (MAST): screen test (ST); format: in vivo; conditions: for Inhibition of screen test failure: percent of mice falling off the screen; for MAST ST LAD: lowest dose at which an A rating (60-100%) is achieved, screen test, intraperitoneally
Procedure: as §1
The compounds are identified in the Examples.

[3] = tested on: Long-Evans rats or squirrel-monkeys; test: Antipsychotic lever-push shock avoidance protocol (SIDR); format: in vivo; conditions: Rattus norvegicus; shock avoidance lever pushing; read-out: SIDR ED50
Procedure: Representative compounds of the invention (identified in the Examples) were also tested for antipsychotic activity according to the following protocol (SIDR). […] Mature male Long-Evans rats or squirrel-monkeys are conditioned to push a lever in order to avoid a painful electric footshock. If the animal fails to push the lever, he receives a shock every ten seconds until the lever is pushed. Shocks can be terminated by pushing the lever. Thereafter, as long as the lever is pushed at least once every 20 seconds, there will be no shock. Each animal acts as its own control; one weekly session is used to establish baseline behavior and another session later in the week is used as a drug session. Once patterns of avoidance are established, the effects of standard and unknown compounds are studied. All events are electronically programmed and the response to these events counted or used as feedback to the program.

conscious rat = test: Antihypertensive evaluation (AHP3): aortic blood pressure and heart rate; format: in vivo; conditions: conscious rat; for minimal effective dose: lowest dose tested at which a >10% reduction in blood pressure for four consecutive hours is achieved, read-out: AHP3 BP LAD
Description: […] EVALUATION (AHP3)
This test procedure is described in the following paragraphs.
A Method for the Direct Monitoring of Aortic Blood Pressure and Heart Rate from Conscious Rats
The continuous monitoring of pulsatile blood pressure (BP) from unrestrained conscious rats surgically equipped with polyethylene cannulas was accomplished by means of a computer assisted data capture scheme (CADCS). The absic elements of the methodology are the cannulation procedure and the CADCS.
Cannulation Procedure: Rats were anesthetized with Telazol (1:1 tiletamine HCI and zolazepam HCI); 20-40 mg/kg IM and the descending aorta exposed via a midline incision. Cannulas fabricated from polyethylene tubing were inserted into the aorta via an undersized puncture hole below the renal arteries. The puncture hole was made by a 23 G disposable needle with a section of the aorta clamped off above and below the puncture site. The cannulas, consisting of a PE100 (0.86 mm ID) body and a PE50 (0.58 mm ID) tip, were attached to a trocar, inserted through the psoas muscle, and passed subcutaneously along the midline of the back and externalized between the ears. The cannulas were anchored to the psoas muscle and between the scalulae (3-0 green braided suture). The midline incision was closed in two steps (muscle first, skin second) using continuous over-and over sutures (4-0 chronic). Each rat was then given penicillin 30,000 units subcutaneously (Penicillin G Procaine Sterile Suspension).
The rats were fitted with a harness-spring-swivel assembly designed to protect the cannula and to provide the rat relative freedom of movement. The harnesses were fabricated from nylon hook and loop tape cemented to a metal plate to which spring wires (18-8 stainless steel), were attached to brass swivels. Each polyethylene cannula was channeled through a spring and connected through a swivel to a pressure transducer (Model P23Gb; Statham Instruments; Hato Rey, Puerto Rico) and an infusion pump (Sage model 234-7; Orion Research, Cambridge, Ma) by means of PE100 tubing. While on test, each rat received a continuous slow infusion of heparinized saline solution (approximately 400 I or 40 units of heparin per 24 hour period) to prevent clot formation. Additional "flushes" of the cannula with heparinized saline were carried out when the aortic pulse pressure (systolic minus diastolic) was less than 25 mm Hg.
CADCS: The pulsatile blood pressure and heart rate of each of 32 rats was monitored every minute by means of two in-laboratory microcomputers communicating directly with a data concentrator computer. The data were first stored on the data concentrator disk and then transferred to a magnetic tape for analysis and report generation by the main research computer. The overall scheme involved modulating the primary signal from the pressure transducer, generating the primary data set of the one-minute values for systolic, diastolic, and mean blood pressures and heart rate by the in-lab microcomputer and the storage, analysis, and report generation by the main research computer.
The transducers were connected to analog signal conditioning modules. The modules providing a regulated excitation voltage for the transducers, amplification as required to interface the microprocessors and an active low pass filter to compensate for the pressure wave form distortion produced by the flexible, fluid filled, narrow cannula.
The microcomputers (one for each of two groups of 16 rats) were connected to the input components through the module interface units, an analog-to-digital converter for the pressure wave form signal and the digital inputs for the dose and event marker switches. The microcomputer controlled the sequential acquisition of data from the modular interface units through an internal synchronous time-of-day clock/ time base generator. […]

rat heart = test: Coronary blood flow (PCS2A): isolated perfused heart; conditions: isolated perfused rat heart
Procedure: CORONARY BLOOD FLOW (PCS2A)
Male rats (400-600 gms) are pretreated with Na haparin 2000 units and anesthetized with Na pentobarbital (50 mg/kg) administered intraperitoneally. Once anesthetized, the rat heart is rapidly excised, the ascending aorta fitted to the aortic perfusion cannula, and […] with a ligature. The coronary arteries are perfused initially at a rate of about 15 ml/min for two to three minutes, afterwhich they are perfused at constant pressure of 70 mm Hg and temperature of 37°C. The electrocardiogram (ECG) is recorded using two platinum electrodes positioned at the base and apex of the left ventricle. A second heart is excised, cannulated, and perfused by the same method outlined above. Both hearts are tested in parallel. The standard physiological salt solution (PSS) is a modified Krebs-Hanseleit bicarbonate buffer of the following composition in mM concentration: NaCI, 127; NaHC03, 25; dextrose, 5.5; Na Pyruvate, 2.0: KCI, 4.7; MgS04, 1.1; KH 2P04, 1.2; CaCl2·2H2O, 2.5; CaNa2 EDTA, 0.05.
A 30-minute stabilization period is observed before starting the test protocol.
The microprocessor control system is a servo mechanism which permits coronary perfusion pressure (CPP) and drug concentration to be maintained constant independent of changes in coronary flow. The level at which CPP and drug concentration are maintained can be changed by commands communicated through the microprocessor keyboard. Dose-response curves are carried out by perfusing concentrated drug solution (DC) at rates proportional to total coronary flow (CFT). Drug concentrations are increased by proportionate increases in the rate of DC infusion over CFT via the microprocessor keyboard. The proportional flow rates for DC:CFT is about .0002:1 at the low end and .02: at the high end of the dose-response curve. Dose-response curves encompassing at least two log doses are carried out by preparing two DCs with a concentration difference of 1:100. Following the first dose range of two log doses, the DC are switched, proportional pumping rate adjusted, and the dose-response curve continued for another two log doses. The standard dose-response curve is carried out in one-half log dose increments starting at a subthreshold dose and ending at a dose which produces near maximal response in activity. Standard reference compounds are tested over the range of 10-^9 to 10-^6M.
Measurements are for heart rate (HR) and coronary flow (CF). Units are: HR, beats/minute (bpm) and CF, milliliters/minute (ml/min). HR is calculated from the ECG strip chart recording and CF is calculated by recording analog outputs from pumps 1 and 2. Outputs from pump #1 = CFT and the output from pump #2 = CF for heart B (CFg). CF for heart A (CFA) is calculated (CFT - CFB = CFA).
Using the above technique, the effects of the compound of Examples 1 and 2 are as follows: […]

male Swiss-Webster mice = test: Analgesic evaluation: antiwrithing (AW) test, acetic acid; format: in vivo; conditions: Mus musculus, sc; subcutaneously, 20 minutes before acetic acid; dose to suppress writhing by 50%; read-out: AW ED50
Procedure: The antiwrithing (AW) test provides preliminary assessment of compounds with potential analgesic activity. The test is performed in male Swiss-Webster mice. Compounds are administered subcutaneously in aqueous 0.2% methylcellulose or other appropriate vehicles in volumes of 10 ml/kg. Dosages represent activity moiety.
Acetic acid (0.6%, 10 ml/kg) is injected intraperitroneally 20 minutes after administration of the adenosine agonist. Writhing movements are counted for five minutes starting seven minutes after the acetic acid injection. Writhing is defined as abdominal constriction and stretching of the body and hind legs with concave arching of the back. […] EDso values are calculated by nonlinear regression analysis.

[4] = coronary flow, read-out: PCS2A CF ED50
[5] = heart rate, read-out: PCS2A HR ED50

SMILES	Inhibition of mouse locomotor activity (Swiss-Webster male mice [1]; 10 mg/kg intraperitoneally)	Inhibition of mouse locomotor activity (Swiss-Webster male mice [1]; 30 mg/kg intraperitoneally)	Inhibition of mouse locomotor activity (Swiss-Webster male mice [1]; 100 mg/kg intraperitoneally)	minimal effective dose (Swiss-Webster male mice [1])	Inhibition of screen test failure (Swiss-Webster male mice [2]; 10 mg/kg intraperitoneally)	Inhibition of screen test failure (Swiss-Webster male mice [2]; 30 mg/kg intraperitoneally)	Inhibition of screen test failure (Swiss-Webster male mice [2]; 100 mg/kg intraperitoneally)	MAST ST LAD (Swiss-Webster male mice [2])	ED50 [3]	Mμ.c. ↓ (conscious rat; 10 mg/kg, decrease in mean arterial blood pressure)	HR ↑ (conscious rat; 10 mg/kg, heart rate increase)	minimal effective dose (conscious rat)	EC50 (rat heart; [4])	EC50 (rat heart; [5])	ED50 (male Swiss-Webster mice)
OC[C@H]1O[C@@H](n2cnc3c(NCC(c4ccccc4)c4ccccc4)nc(Cl)nc32)[C@H](O)[C@@H]1O [Example 3, N^6-(2,2-Dipenylethyl)-2-chloroadenosine]	56%	85%	92%	10 mg/kg	0%	11%	44%	>100 mg/kg	9.6 mg/kg	15%	<20%	10 mg/kg	30 µM	> 30 µM	–
Nc1nc(NCC(c2ccccc2)c2ccccc2)c2ncn([C@@H]3O[C@H](CO)[C@@H](O)[C@H]3O)c2n1 [Example 4, N^6-(2,2-Diphenylethyl)-2-aminoadenosine]	64%	87%	95%	10 mg/kg	0%	11%	22%	>100 mg/kg	3.8 mg/kg	–	–	30 mg/kg	1 µM	> 0.1 µM	–
OC[C@H]1O[C@@H](n2cnc3c(NC(c4ccccc4)c4ccccc4)ncnc32)[C@H](O)[C@@H]1O [Example 5, N^6-Diphenylmethyladenosine, reference compound]	–	–	–	100 mg/kg	–	–	–	>100 mg/kg	> 50 mg/kg	–	–	> 10 mg/kg	> 3 µM	> 3 µM	–
CC(CNc1ncnc2c1ncn2[C@@H]1O[C@H](CO)[C@@H](O)[C@H]1O)(c1ccccc1)c1ccccc1 [Example 8, N^6-(2,2-Diphenylpropyl)adenosine]	–	–	–	10 mg/kg	–	–	–	>100 mg/kg	5.6 mg/kg	–	–	10 mg/kg	< 0.1 µM	3 µM	10.6 mg/kg
OC[C@H]1O[C@@H](n2cnc3c(NCC(c4ccccc4)c4ccc(F)cc4)ncnc32)[C@H](O)[C@@H]1O (stereo partly drawn) [Example 10, N^6-(2-(4-Fluorophenyl)-2-phenylethyl)adenosine]	–	–	–	3 mg/kg	–	–	–	>100 mg/kg	8.6 mg/kg	–	–	10 mg/kg	0.01 µM	1.4 µM	–
OC[C@H]1O[C@@H](n2cnc3c(NCC(c4ccccc4)c4ccc(Cl)cc4)ncnc32)[C@H](O)[C@@H]1O (stereo partly drawn) [Example 15, N^6-(2-(4-Chlorophenyl)-2-phenylethyl)adenosine]	–	–	–	10 mg/kg	–	–	–	>100 mg/kg	12.7 mg/kg	–	–	10 mg/kg	0.03 µM	> 3 µM	–
CC(=O)OC[C@H]1O[C@@H](n2cnc3c(NCC(c4ccccc4)c4ccccc4)ncnc32)[C@H](OC(C)=O)[C@@H]1OC(C)=O [Example 25, 2',3',5'-Tri-O-acetyl-N^6-(2,2-diphenylethyl)adenosine]	–	–	–	3 mg/kg	–	–	–	>100 mg/kg	11.3 mg/kg	–	–	10 mg/kg	1 µM	2.2 µM	–
